The record followed here is ChEMBL document CHEMBL3352712, “Structural modifications of coumarin derivatives: Determination of antioxidant and lipoxygenase (LOX) inhibitory activity” (Bioorg Med Chem, 2014).

One series deals with Lipoxygenase (Glycine max, UniProt Q39829). The experiment in a line: Inhibition of soybean LOX assessed as reduction in conversion of sodium linoleate to 13-hydroperoxylinoleic acid by UV spectroscopy.
Series [1] is described as follows: Antioxidant activity assessed as DPPH radical scavenging activity at 100 uM after 60 mins by spectrophotometry. It counts as physicochemical. As to conditions: 1 h. (The DPPH test is a chemical assay of radical scavenging.)
The nature of series [2]: Antioxidant activity assessed as DPPH radical scavenging activity at 100 uM after 20 mins by spectrophotometry. It counts as physicochemical.
Series [3] is described as follows: Antioxidant activity assessed as inhibition of AAPH-induced linoleic acid lipid peroxidation at 100 uM. It is filed as physicochemical.
In series [4] the target is Lipoxygenase (Glycine max) (UniProt Q39829). The series can be described thus: Inhibition of soybean LOX assessed as reduction in conversion of sodium linoleate to 13-hydroperoxylinoleic acid at 100 uM by UV spectroscopy.

As usually defined, the IC50 is the midpoint of a concentration-inhibition curve. Regarding `CC(Cc1ccc(O)c(O)c1)C(C)Cc1ccc(O)c(O)c1` (configuration not stated) [NORDIHYDROGUAIARETIC ACID], the IC50 at Lipoxygenase (read-out: IC50) came to 51 µM. For the same compound, the “inhibition (INH)” value in series [1] came to 83%; in series [2], 84%.
Turning to `Cc1c(-c2ccc(O)c(O)c2)c(=S)oc2ccc(Br)cc12`, the IC50 on Lipoxygenase (read-out: IC50) turned out to be 90 µM. In addition, the “inhibition (INH)” value in series [3] is reported as 59%; in series [1], 35%; in series [2], 41%.
Turning to `COc1ccc(-c2c(C)c3cc(Cl)ccc3oc2=S)cc1OC`, the IC50 entry on Lipoxygenase is reported as “Not Active”. The “inhibition (INH)” value in series [3] is reported as 50%; in series [1], 9%; in series [2], “Not Active”.
Broadly, the inhibition is the percentage by which the read-out fell short of the control. Consider `COc1ccc(-c2c(C)c3cc(Br)ccc3o/c2=N/Nc2ccccc2)cc1OC`, for which the “inhibition (INH)” value in series [3] is listed as 55%; in series [1], 86%; in series [2], 85%. Moreover, the inhibition in series [4] turned out to be 28%.
Regarding `COc1ccc(-c2c(C)c3ccccc3oc2=S)cc1`, the “inhibition (INH)” value amounted to 11% in series [3], 11% in series [1] and 14% in series [2]. In addition, the inhibition in series [4] turned out to be 35%.
On to `Cc1c(-c2ccc(O)c(O)c2)c(=O)oc2ccc(Br)cc12`, for which, at Lipoxygenase (read-out: IC50), the IC50 was 75 µM. Further, the “inhibition (INH)” value in series [3] is 75%; in series [1] it was 62%; in series [2], 77%.
`Cc1c(-c2ccc(O)c(O)c2)c(=O)oc2c(Br)cc(Br)cc12`: the “inhibition (INH)” value in series [3] came out at 75%; in series [1], 78%; in series [2] it was 76%. In addition, the inhibition in series [4] came to 7%.
Regarding `CC(C)=CCOc1ccc(-c2cc3cc(Br)ccc3oc2=O)cc1OCC=C(C)C`, at Lipoxygenase (read-out: IC50), the IC50 came to 40 µM. The “inhibition (INH)” value in series [3] was 99%; in series [1], 5%; in series [2] it was “Not Active”.
For `CC(C)=CCOc1ccc(-c2c(C)c3cc(Br)cc(Br)c3oc2=O)cc1OCC=C(C)C`, the IC50 on Lipoxygenase (read-out: IC50) was 37 µM. Besides, the “inhibition (INH)” value in series [3] was 100%; in series [1], 9%; in series [2], “Not Active”.
As to `COc1ccc(-c2c(C)c3cc(Br)cc(Br)c3oc2=O)cc1OC`, the “inhibition (INH)” value is on record as 58% in series [3], 2% in series [1] and 13% in series [2].
Regarding `COc1ccc(-c2cc3cc(Br)ccc3oc2=O)cc1OC`, the IC50 on Lipoxygenase (read-out: IC50) amounted to 81 µM. Besides, the figures for the “inhibition (INH)” value in series [3], in series [1] and in series [2] were 56%, 12% and 11%, respectively.
`COc1ccc(-c2c(C)c3cc(Br)ccc3oc2=S)cc1OC`: the IC50 at Lipoxygenase (read-out: IC50) came out at 65 µM. Moreover, the “inhibition (INH)” value in series [3] stood at 96%; in series [1] it was 21%; in series [2] it was 26%.
Take `O=c1oc2ccc(Br)cc2cc1-c1ccc(O)c(O)c1`: the “inhibition (INH)” value in series [3] is 26%; in series [1], 80%; in series [2], 78%. Besides, the inhibition in series [4] was found to be 26%.
Take `COc1ccc(-c2c(C)c3cc(-c4ccc(C=O)cc4)ccc3oc2=O)cc1OC`: the figures for the “inhibition (INH)” value in series [3], in series [1] and in series [2] were 64%, 68% and 11%, respectively. The inhibition in series [4] is 1%.
`COc1ccc(-c2c(C)c3ccccc3o/c2=N/Nc2ccccc2)cc1`: the IC50 entry on Lipoxygenase was “Not Active”. For the same compound, the entries for the “inhibition (INH)” value in series [3], in series [1] and in series [2] were 47%, 85% and 84%, respectively.
For `Cc1c(C)c2c(c(C)c1O)CCC(C)(C(=O)O)O2` (configuration not stated) [TROLOX], the “inhibition (INH)” value in series [3] is 63%.
Turning to `CC(C)=CCOc1ccc(-c2c(C)c3cc(Br)ccc3oc2=O)cc1OCC=C(C)C`, the IC50 on Lipoxygenase (read-out: IC50) turned out to be 75 µM. In addition, the “inhibition (INH)” value in series [3] is 92%; in series [1] it was 68%; in series [2] it was 67%.
In the case of `COc1ccc(-c2ccc3oc(=O)c(-c4ccc(OC)c(OC)c4)c(C)c3c2)cc1`, the “inhibition (INH)” value in series [3] is on record as 7%; in series [1], 7%; in series [2], 17%. For the same compound, the inhibition in series [4] was 44%.
